According to patent publication US12509431B2, “1,4-dihydroquinazolinone compounds and uses thereof” (Edgewise Therapeutics, Inc., priority 2022, dated 2025):

Key:
Assay type in all cases: biochemical
Settings in all cases: Table 8
Porcine Atria myofibrils = test: Myofibril ATPase assay (PK/LDH NADH-coupled), atria myofibrils
In short: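 Porcine atrial myofibril ATPase followed via PK/LDH-coupled NADH depletion, absorbance at 340 nm read every 1.5-2 min over 75 min. Slopes (mAU/min) normalized to vehicle as 100% and fit to a 4-parameter logistic; EC25% derived, plus EC50% for inhibitors.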

[1] = test system: Rabbit Skeletal myofibrils (rabbit psoas muscle); test: Myofibril ATPase assay (PK/LDH NADH-coupled), skeletal myofibrils
In short: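 Rabbit psoas myofibrils in pCa (PIPES/CaCl2/EGTA, pH 7.0) buffer; ADP coupled via PK/LDH to NADH loss, read at 340 nm every 1.5–2 min for 75 min. Slopes normalized to vehicle (100%) and fit to 4-parameter logistic for EC25, plus EC50 for inhibitors.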

[2] = molecular target: T1, Porcine Ventricle myofibrils (left ventricle of Yucatan minipigs) (Sus scrofa, UniProt P79293); test: Myofibril ATPase assay (PK/LDH NADH-coupled), ventricle myofibrils
T1 construct: Myofibrils from porcine cardiac muscle was isolated from the left ventricle of Yucatan minipigs; tissue Exemplar Genetics; host or cells: left ventricle of Yucatan minipigs
T1 sequence (P79293 whole entry): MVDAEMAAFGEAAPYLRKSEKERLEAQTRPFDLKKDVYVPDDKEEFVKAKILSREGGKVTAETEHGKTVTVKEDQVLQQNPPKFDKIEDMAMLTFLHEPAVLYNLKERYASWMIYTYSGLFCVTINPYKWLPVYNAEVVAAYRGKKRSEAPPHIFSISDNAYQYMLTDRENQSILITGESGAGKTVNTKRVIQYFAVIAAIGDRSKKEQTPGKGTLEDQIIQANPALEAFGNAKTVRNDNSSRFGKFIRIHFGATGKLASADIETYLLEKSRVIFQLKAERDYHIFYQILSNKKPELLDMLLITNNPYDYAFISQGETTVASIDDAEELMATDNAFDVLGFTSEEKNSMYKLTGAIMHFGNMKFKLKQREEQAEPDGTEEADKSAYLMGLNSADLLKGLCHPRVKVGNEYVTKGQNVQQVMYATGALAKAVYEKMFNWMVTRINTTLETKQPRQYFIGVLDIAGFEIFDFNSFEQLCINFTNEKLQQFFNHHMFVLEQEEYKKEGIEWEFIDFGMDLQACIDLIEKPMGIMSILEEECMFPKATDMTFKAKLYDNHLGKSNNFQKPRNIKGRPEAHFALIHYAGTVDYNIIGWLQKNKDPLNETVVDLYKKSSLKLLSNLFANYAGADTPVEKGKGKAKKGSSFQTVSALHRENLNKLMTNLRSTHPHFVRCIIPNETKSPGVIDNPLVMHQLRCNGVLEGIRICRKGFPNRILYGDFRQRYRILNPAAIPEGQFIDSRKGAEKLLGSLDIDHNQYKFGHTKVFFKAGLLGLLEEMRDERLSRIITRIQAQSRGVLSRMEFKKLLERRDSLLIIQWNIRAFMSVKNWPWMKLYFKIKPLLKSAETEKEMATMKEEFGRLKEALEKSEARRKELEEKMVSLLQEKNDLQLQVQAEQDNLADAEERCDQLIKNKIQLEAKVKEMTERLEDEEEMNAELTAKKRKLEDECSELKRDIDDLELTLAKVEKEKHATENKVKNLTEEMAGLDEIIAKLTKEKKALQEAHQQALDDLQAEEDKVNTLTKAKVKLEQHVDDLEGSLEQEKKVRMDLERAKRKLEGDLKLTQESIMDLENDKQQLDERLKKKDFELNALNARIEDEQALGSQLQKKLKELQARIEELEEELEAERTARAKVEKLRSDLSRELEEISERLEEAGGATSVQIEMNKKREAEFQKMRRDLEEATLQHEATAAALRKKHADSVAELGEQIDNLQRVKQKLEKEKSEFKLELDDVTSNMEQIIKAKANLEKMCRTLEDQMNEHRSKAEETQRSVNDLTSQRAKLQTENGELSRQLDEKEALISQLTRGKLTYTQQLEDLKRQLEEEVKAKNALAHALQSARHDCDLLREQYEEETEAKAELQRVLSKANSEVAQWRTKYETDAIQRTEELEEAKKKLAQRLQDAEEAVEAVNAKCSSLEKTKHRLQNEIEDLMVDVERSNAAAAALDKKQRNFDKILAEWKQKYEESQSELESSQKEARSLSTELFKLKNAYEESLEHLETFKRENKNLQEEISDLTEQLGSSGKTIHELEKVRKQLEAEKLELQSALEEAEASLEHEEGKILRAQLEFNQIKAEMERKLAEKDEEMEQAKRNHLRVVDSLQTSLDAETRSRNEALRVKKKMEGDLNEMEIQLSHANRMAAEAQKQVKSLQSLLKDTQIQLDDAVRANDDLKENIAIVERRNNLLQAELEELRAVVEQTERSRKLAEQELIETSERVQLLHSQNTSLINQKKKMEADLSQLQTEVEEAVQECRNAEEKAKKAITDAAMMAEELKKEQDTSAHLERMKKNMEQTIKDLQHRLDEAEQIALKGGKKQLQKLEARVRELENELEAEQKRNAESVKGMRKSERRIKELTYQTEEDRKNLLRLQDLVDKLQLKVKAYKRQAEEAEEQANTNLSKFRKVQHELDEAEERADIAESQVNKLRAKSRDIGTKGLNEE
In short: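 Yucatan minipig left-ventricle myofibrils; ATPase measured by PK/LDH-coupled NADH loss at 340 nm, read every 1.5-2 min for 75 min. Slopes normalized to vehicle (100%) and fit to 4-parameter logistic model; EC25 and, for inhibitors, EC50 calculated.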

Row | SMILES | Porcine Atria IC25 (Porcine Atria myofibrils) [µM] | Rabbit Psoas IC25 [1] [µM] | Porcine Ventricle IC25 [2] [µM]
1 | C[C@H](C(=O)N[C@@H](CO)c1ncc(F)cc1F)N1Cc2c(Cl)cccc2NC1=O [Compound B170] | 2.85 | 9.578 | 31.8
2 | C[C@@H](NC(=O)CN1Cc2cc(F)ccc2NC1=O)c1ccc(C#N)cn1 [Compound B171] | 19.79 | 7.545 | 100
3 | C[C@@H](NC(=O)CN1Cc2cc(F)ccc2NC1=O)c1ncccc1F [Compound B173] | 100.00 | 100 | 100
4 | C[C@H](NC(=O)CN1Cc2cc(F)ccc2NC1=O)c1ncccc1F [Compound B174] | 46.54 | 83 | 100
5 | O=C(CN1Cc2c(ccc(F)c2F)NC1=O)N[C@H](CO)c1ncc(F)cc1F [Compound B175] | 100.00 | 100 | 100
6 | O=C(CN1Cc2c(ccc(F)c2F)NC1=O)N[C@@H](CO)c1ncc(F)cc1F [Compound B176] | 0.06 | 0.08998 | 0.3872
7 | C[C@@H](NC(=O)CN1Cc2cc(F)ccc2NC1=O)c1ccc(F)cc1F [Compound B177] | 100.00 | 68.51 | 100
8 | COc1cnc([C@@H](C)NC(=O)CN2Cc3cc(F)ccc3NC2=O)c(F)c1 [Compound B178] | 3.48 | 3.38 | 100
9 | O=C(CN1Cc2cc(F)ccc2NC1=O)N[C@H](CO)c1ncc(F)cc1F [Compound B180] | 100.00 | 100 | 100
10 | Cc1cccnc1[C@@H](C)NC(=O)CN1Cc2c(ccc(F)c2F)NC1=O [Compound B182] | 2.28 | 1.159 | 100
11 | Cc1cccnc1[C@H](C)NC(=O)CN1Cc2c(ccc(F)c2F)NC1=O [Compound B183] | 100.00 | 100 | 100
12 | COc1cccnc1[C@@H](C)NC(=O)CN1Cc2c(ccc(F)c2F)NC1=O [Compound B184] | 57.48 | 100 | 56.86
13 | COc1cccnc1[C@H](C)NC(=O)CN1Cc2c(ccc(F)c2F)NC1=O [Compound B185] | 100.00 | 100 | 100
14 | COc1cccnc1[C@@H](C)NC(=O)CN1Cc2cc(F)ccc2NC1=O [Compound B186] | 100.00 | 100 | 100
15 | COc1cccnc1[C@H](C)NC(=O)CN1Cc2cc(F)ccc2NC1=O [Compound B187] | 68.80 | 100 | 100
16 | C[C@@H](NC(=O)CN1Cc2c(ccc(F)c2F)NC1=O)c1ccc(C#N)cc1F [Compound B188] | 0.42 | 0.4649 | 1.834
17 | C[C@@H](NC(=O)CN1Cc2c(ccc(F)c2F)NC1=O)c1ncc(F)cc1F [Compound B190] | 17.83 | 9.504 | 50.31
18 | Cc1cccnc1[C@@H](C)NC(=O)CN1Cc2cc(F)ccc2NC1=O [Compound B192] | 100.00 | 100 | 100
19 | Cc1cccnc1[C@H](C)NC(=O)CN1Cc2cc(F)ccc2NC1=O [Compound B193] | 28.17 | 41.67 | 40.61
20 | Cc1cnc([C@@H](C)NC(=O)CN2Cc3cc(F)ccc3NC2=O)c(F)c1 [Compound B194] | 3.71 | 6.088 | 78.56
21 | Cc1cnc([C@H](C)NC(=O)CN2Cc3cc(F)ccc3NC2=O)c(F)c1 [Compound B195] | 100.00 | 100 | 100
22 | C[C@@H](NC(=O)CN1Cc2cc(C#N)ccc2NC1=O)c1ncc(F)cc1F [Compound B196] | 100.00 | 100 | 100
23 | C[C@H](NC(=O)CN1Cc2cc(C#N)ccc2NC1=O)c1ncc(F)cc1F [Compound B197] | 18.70 | 87.6 | 100

Row | SMILES | Porcine Atria IC25 (Porcine Atria myofibrils) [µM] | Rabbit Psoas IC25 [1] [µM] | Porcine Ventricle IC25 [2] [µM]
24 | C[C@@H](NC(=O)CN1Cc2cc(F)ccc2NC1=O)c1ncc(C#N)cc1F [Compound B198] | 100.00 | 100 | 100
25 | C[C@H]1c2ccccc2NC(=O)N1CC(=O)N[C@@H](CO)c1ccc(F)cc1F [Compound B201] | 25.98 | 18.61 | 100
26 | CC(NC(=O)CN1Cc2cc(F)ccc2NC1=O)c1ccccc1Br (stereo not drawn) [Compound B202] | 0.18 | 0.1741 | 1.035
27 | C[C@@H](NC(=O)CN1Cc2cc(F)ccc2NC1=O)c1ccc(C#N)cc1 [Compound B203] | 5.48 | 14.19 | 23.26
28 | C[C@H](NC(=O)CN1Cc2cc(F)ccc2NC1=O)c1ccc(C#N)cc1 [Compound B204] | 0.27 | 0.1501 | 1.393
29 | C[C@@H](NC(=O)CN1Cc2cc(F)ccc2NC1=O)c1ccc(C#N)cc1F [Compound B205] | 2.07 | 6.054 | 16.29
30 | CC(C)C[C@@H](C(=O)N[C@@H](C)c1ccc(F)cc1F)N1Cc2cc(F)ccc2NC1=O [Compound B207] | 100.00 | 100 | 100
31 | CC(C)C[C@H](C(=O)N[C@@H](C)c1ccc(F)cc1F)N1Cc2cc(F)ccc2NC1=O [Compound B208] | 100.00 | 100 | 100
32 | Cc1ccc([C@@H](C)NC(=O)CN2Cc3cc(F)ccc3NC2=O)c(F)c1 [Compound B209] | 12.15 | 100 | 100
33 | Cc1ccc([C@H](C)NC(=O)CN2Cc3cc(F)ccc3NC2=O)c(F)c1 [Compound B210] | 0.18 | 0.1421 | 2.251
34 | C[C@@H](C(=O)N[C@H](CO)c1ccc(F)cc1F)N1Cc2c(Cl)cccc2NC1=O [Compound B211] | 100.00 | 100 | 100
35 | C[C@@H](C(=O)N[C@@H](CO)c1ccc(F)cc1F)N1Cc2c(Cl)cccc2NC1=O [Compound B212] | 1.52 | 77.91 | 15.17
36 | C[C@H](C(=O)N[C@H](CO)c1ccc(F)cc1F)N1Cc2c(Cl)cccc2NC1=O [Compound B213] | 97.43 | 100 | 100
37 | C[C@H](C(=O)N[C@@H](CO)c1ccc(F)cc1F)N1Cc2c(Cl)cccc2NC1=O [Compound B214] | 0.07 | 0.088 | 0.2408
38 | C[C@@H](NC(=O)CN1Cc2cc(F)ccc2NC1=O)c1ncccn1 [Compound B215] | 100.00 | 100 | 100
39 | C[C@H](NC(=O)CN1Cc2cc(F)ccc2NC1=O)c1ncccn1 [Compound B216] | 100.00 | 100 | 100
40 | O=C(CN1Cc2cc(F)ccc2NC1=O)N[C@H](CO)c1ccc(F)cc1F [Compound B217] | 0.13 | 0.0678 | 0.8987
41 | O=C(CN1Cc2cc(F)ccc2NC1=O)N[C@@H](CO)c1ccc(F)cc1F [Compound B218] | 8.55 | 9.306 | 100
42 | C[C@H](NC(=O)[C@H](Cc1ccccc1)N1Cc2cc(F)ccc2NC1=O)c1ccc(F)cc1F [Compound B219] | 100.00 | 31.8 | 100
43 | C[C@H](NC(=O)[C@@H](Cc1ccccc1)N1Cc2cc(F)ccc2NC1=O)c1ccc(F)cc1F [Compound B220] | 53.57 | 47.56 | 100
44 | C[C@H](NC(=O)CN1C(=O)Nc2ccc(F)cc2C12CC2)c1ccc(F)cc1F [Compound B221] | 0.03 | 0.0174 | 0.1086
45 | C[C@H](NC(=O)[C@H](C)N1Cc2c(F)cccc2NC1=O)c1ccc(F)cc1F [Compound B222] | 0.05 | 0.041 | 0.4365
